System: ovulation
Test: not given
Details: compared to melatonin; cited from earlier work

Row | SMILES | ovulation blocking activity
1 | COc1cc2c(CC(C)NC(C)=O)c[nH]c2cc1Cl (stereo not drawn) [α-Methyl-6-chloromelatonin] | no increased ovulation-blocking activity
2 | COc1cc2c(CCNC(C)=O)c[nH]c2cc1F [6-fluoromelatonin] | increased ovulation blocking activity
3 | COc1cc2c(CCNC(C)=O)c[nH]c2cc1Cl [6-chloromelatonin] | increased ovulation blocking activity

System: Adult female rats
Test: Ovulation inhibition in adult female rats (ova in the oviduct on the day of estrus)
Type: in vivo
Details: Rattus norvegicus, po; administered orally at noon on the day of proestrus; dose giving a 50% decrease in the number of ovulating non-control rats relative to control rats; read-out: Minimum effective inhibitory dose in mg per kilogram of rat weight
Experimental: The degree of ovulation inhibitory activity was determined according to the following protocol.
Adult female rats with regular estrus cycles of four days each are employed. The estrus cycle consists of 2 days of diestrus followed by a day of proestrus and then a day of estrus. […] On the afternoon of proestrus, luteinizing hormone (LH) is released into the blood by the pituitary gland. The LH travels to the ovary where it induces ovulation, resulting in the presence of eggs in the oviduct on the day of estrus.
The test compound is administered orally to the non-control rats at noon on the day of proestrus. Both control and non-control rats are sacrificed on the following day (estrus). The oviduct is removed from each rat and examined microscopically for the presence of ova.
Melatonin is included in Table I for comparative purposes.

Row | SMILES | minimal effective dose [mg/kg]
4 | COc1cc2c(C(C)CNC(C)=O)c[nH]c2cc1Cl (racemic) [β-methyl-6-chloro-melatonin, β-Methyl-6-chloromelatonin] | 2
5 | COc1ccc2[nH]cc(C(C)CNC(C)=O)c2c1 (racemic) [β-methyl melatonin, β-Methylmelatonin] | 1
6 | COc1cc2c(C(C)CNC(C)=O)c[nH]c2c(Cl)c1Cl (racemic) [β-Methyl-6,7-dichloro-melatonin, β-methyl-6,7-dichloromelatonin] | 15
7 | CCC(CNC(C)=O)c1c[nH]c2ccc(OC)cc12 (racemic) [β-ethyl melatonin, β-Ethylmelatonin] | 1
8 | COc1cc2c([C@@H](C)CNC(C)=O)c[nH]c2cc1Cl [R-(+)-β-methyl-6-chloromelatonin] | 1
9 | COc1ccc2[nH]cc([C@@H](C)CNC(C)=O)c2c1 [R-(+)-β-methyl melatonin, R-(+)-β-Methylmelatonin] | 1
10 | COc1ccc2[nH]cc(CCNC(C)=O)c2c1 [Melatonin, N-[2-(5-methoxy-3-indolyl)ethyl]acetamide] | 32
11 | COc1cc2c([C@H](C)CNC(C)=O)c[nH]c2cc1Cl [S-(-)-β-methyl-6-chloromelatonin] | > 5

System: rats and mice
Test: not given
Details: cited from earlier work

Row | SMILES | inhibition of the estrous phase of the estrous cycle and of ovulation
12 | COc1ccc2[nH]cc(CCNC(C)=O)c2c1 [Melatonin, N-[2-(5-methoxy-3-indolyl)ethyl]acetamide] | inhibited both the estrous phase of the estrous cycle and ovulation

— patent EP0281242B1, “Beta-alkylmelatonins” (ELI LILLY AND COMPANY, priority 1987, dated 1988)
